Source: US20090176870A1, “TGF-BETA MODULATORS AND METHODS FOR USING THE SAME” (MARSHFIELD CLINIC, priority 2005, published 2009)

Columns and labels:
[1] = system: TGF-β1 activity in CHO cells carrying the plasmid pTARE-Luc; assay: pTARE luciferase reporter assay in CHO cells; assay type: cell-based, Chinese hamster; conditions: compound 1 μL/mL with added TGF-β1 25 ng/mL, FIG. 2B
Procedure: The pTARE luciferase reporter system was purchased from Stratagene (La Jolla, Calif.) and transfected into CHO (Chinese Hamster Ovary) cells that were purchased from ATCC (American Type Culture Collection). The plasmid pSV2neo was co-transfected with pTARE at a 40 fold lower concentration to allow for selection of colonies that received plasmid DNA using G418. Luciferase assays were performed as described using Luciferase assay system and reporter lysis buffer (Promega, Madison, Wis.). Luciferase was quantitated using a luminometer (Turner Designs, Inc., Sunnyvale, Calif.).
Compounds of Table 1 (see Example 1 above) were further tested for their ability to modulate TGF-β1 activity. Briefly, the CHO cells carrying the plasmid pTARE-Luc were treated either with each compound individually (1 μL/mL) or with added TGF-β1 (25 ng/mL). Without being bound by any theory, it is believed that testing the compound by itself in this assay allows the identification of candidate TβRII agonists while testing the chemical in the presence of TGF-β1 allows the identification of candidate TGF-β1 antagonists.

[2] = system: TGF-β1 growth inhibition of Mv1Lu cells; assay: Mv1Lu growth inhibition assay with TGF-β1; assay type: cell-based, mink; conditions: TGF-β1 1.5 ng/mL serially diluted to 0.095 ng/mL with compound, FIGS. 4A-4D
Procedure: Mv1Lu cells were purchased from ATCC. Growth inhibition assays for Mv1Lu and CHO cells were performed as described by Danielpour et al., in J. Cell. Physiol., 1989, 138, 79-86, using 0.2% fetal bovine serum to limit binding proteins present in serum. Mv1Lu cells were cultured in the presence of a standard TGF-β dilution curve starting at 1.5 ng/mL and serially diluted to 0.047 ng/mL or in the presence of TGF-β1 (1.5 ng/mL serially diluted to 0.095 ng/mL) with the compound. For each tested compound, one assay contained only the compound and no added TGF-β1.

[3] = Precipitate formation / solubility; assay type: physicochemical; conditions: for Solubility: Table 3; for precipitate formation when diluted into water: room temperature, centrifugation at 17,000×G
^125I labeled TGF-β1 = ^125I labeled TGF-β1 (Homo sapiens, UniProt P01137); assay: 125I labeled TGF-β1 remaining in solution after incubation with compound and centrifugation; conditions: for Amount of ^125I labeled TGF-β1 in solution: 0.5 μL compound in 100 μL DMEM, 0.2% FBS overnight, 90 μL supernatant counted
Chain of ^125I labeled TGF-β1 (P01137 279-390 limits assumed): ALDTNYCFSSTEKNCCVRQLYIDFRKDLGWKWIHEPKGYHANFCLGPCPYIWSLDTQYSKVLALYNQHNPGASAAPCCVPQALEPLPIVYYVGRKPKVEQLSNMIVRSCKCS
Procedure: About 10 μL of ^125I labeled TGF-β1 (22.78 μCi/ml, 6.3 pmole/ml) was incubated with 0.5 μL of the compound in 100 μL of DMEM, 0.2% FBS overnight and then centrifuged. […] However, for compound NSC 119889 there was approximately a 40% increase in the amount of ^125I that remained in solution relative to the control. While this might be due to the compound decreasing adherence of TGF-β to the microcentrifuge tube, the lack of precipitation of the ^125I labeled TGF-β is consistent with the compounds blocking interaction of TGF-β1 with the receptor possibly by direct interaction with the receptor.

TβRIII = target: T1, TβRIII (Homo sapiens, UniProt Q03167); assay: Soluble TβRIII receptor assay with 125I labeled TGF-β1; assay type: binding; conditions: for Amount of ^125I labeled TGF-β1 bound to TβRIII: soluble receptor assay, control 25048
T1 construct: purchased R&D Systems
T1 sequence (Q03167 21-787 limits assumed): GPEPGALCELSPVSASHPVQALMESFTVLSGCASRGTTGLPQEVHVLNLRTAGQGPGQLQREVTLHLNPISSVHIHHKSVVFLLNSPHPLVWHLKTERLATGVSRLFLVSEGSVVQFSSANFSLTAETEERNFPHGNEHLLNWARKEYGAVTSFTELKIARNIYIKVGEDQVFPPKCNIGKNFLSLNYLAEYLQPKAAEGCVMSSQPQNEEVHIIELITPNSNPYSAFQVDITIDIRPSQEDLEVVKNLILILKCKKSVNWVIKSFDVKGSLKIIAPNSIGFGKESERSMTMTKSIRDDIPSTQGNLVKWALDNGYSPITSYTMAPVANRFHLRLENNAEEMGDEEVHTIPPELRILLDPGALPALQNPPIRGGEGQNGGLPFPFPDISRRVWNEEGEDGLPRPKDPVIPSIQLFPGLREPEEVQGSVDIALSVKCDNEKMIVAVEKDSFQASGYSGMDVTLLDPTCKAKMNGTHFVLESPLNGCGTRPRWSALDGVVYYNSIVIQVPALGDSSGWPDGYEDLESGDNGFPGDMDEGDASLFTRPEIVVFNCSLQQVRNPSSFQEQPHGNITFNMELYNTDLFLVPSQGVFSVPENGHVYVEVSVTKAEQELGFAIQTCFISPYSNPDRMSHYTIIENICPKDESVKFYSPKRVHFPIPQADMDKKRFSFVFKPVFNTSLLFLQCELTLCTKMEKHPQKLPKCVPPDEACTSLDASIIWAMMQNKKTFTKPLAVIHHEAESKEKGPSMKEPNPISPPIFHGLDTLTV
Procedure: The compound NSC 119889 and related molecules also block soluble TGF-β receptor type III (TβRIII). TβRIII binds TGF-β1 and TGF-β2 and is involved in presenting TGF-β2 to TβRII. […] TβRIII was purchased from R&D Systems (Minneapolis, Minn.). It was used at concentration of 500 ng/mL in the soluble receptor assay when Immulon 2HB plates were used and at 1 μg/mL when Immulon 1B plates were used.

TβRII = target: T2, TβRII (Homo sapiens, UniProt P37173); assay: Soluble TβRII binding assay with 125I labeled TGF-β1; conditions: I-125 TGF-β1, increasing concentration of competitor, FIG. 6
T2 construct: purchased R&D Systems
T2 sequence (P37173 23-166 limits assumed, species assumed): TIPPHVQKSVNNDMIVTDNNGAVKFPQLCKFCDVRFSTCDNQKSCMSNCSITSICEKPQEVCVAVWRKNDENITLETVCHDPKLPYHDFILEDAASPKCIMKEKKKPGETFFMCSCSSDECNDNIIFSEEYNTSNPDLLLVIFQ
Procedure: Immulon 1B or 2 HB 96 well plates (Dynex Technologies, Inc., Chantilly, Va.) were coated with 100 μL/well of 500 ng/mL TβRII (R&D Systems, Minneapolis, Minn.) in phosphate buffered saline overnight at 4° C. and then blocked for 1 hr with 150 μL/well of 1% bovine serum albumin, 150 mM NaCl, 100 mM tris-HCl, pH 7.6. Following washing with PBS/0.05% Tween 20 (wash buffer, i.e., “WB”) samples were serially diluted in 1 mg/mL BSA, 0.15 M NaCl, 100 mM tris-HCl, pH 7.6, 0.05% Tween 20 containing 5 ng/mL of ^125I labeled TGF-β1 as described by Frolik et al., in J. Biol. Chem., 1984, 259, 10995-11000. Samples were incubated in the wells with TβRII for one hour at room temperature and then the plates were washed with WB. Individual wells were separated and counted.
To identify novel organic chemicals that block TGF-B activity, about 30,000 chemicals from the National Cancer Institute Developmental Therapeutics program open repository were screened. This repository contains about 140,000 chemicals. For screening, soluble TBRII was attached to an immulon 2 HB plate and then blocked with BSA. About 1 μL of each test chemical was diluted from the stock plate into 125 μL of dilution buffer containing 5 ng/mL I-125 labeled TGF-β1. In some cases, 1 μL of four chemicals each was combined to allow higher throughput. […]

CHO cells = assay: CHO cell growth, tritiated thymidine incorporation; assay type: cell-based, Chinese hamster; conditions: for amount of radioactivity incorporated into CHO cells: tritiated thymidine
Procedure: (§1) Mv1Lu cells were purchased from ATCC. Growth inhibition assays for Mv1Lu and CHO cells were performed as described by Danielpour et al., in J. Cell. Physiol., 1989, 138, 79-86, using 0.2% fetal bovine serum to limit binding proteins present in serum.
Chinese hamster ovarian (i.e., CHO) cells were cultured in the presence of compounds and tested for growth in the presence of tritiated thymidine. […] The reported value is the average of duplicate assays.

[4] = system: TGF-β1 stimulated growth of CHO cells; assay: CHO cell growth stimulation by TGF-β1; assay type: cell-based, Chinese hamster; conditions: 1 L (FIG. 5A) and 2 μL (FIG. 5B) of blocking compound
Procedure: as §1

Row | Compound | luciferase activity in the presence of TGF-β1 [1] | blocking of growth inhibition of TGF-β1 [2] | Solubility [3] | Amount of ^125I labeled TGF-β1 in solution (^125I labeled TGF-β1; first value column) | precipitate formation when diluted into water [3] | Amount of ^125I labeled TGF-β1 in solution (^125I labeled TGF-β1; second value column) | Amount of ^125I labeled TGF-β1 in solution (^125I labeled TGF-β1; third value column) | Amount of ^125I labeled TGF-β1 bound to TβRIII (TβRIII) | binding competition vs TGF-β1 for soluble TβRII, effective concentration range (TβRII) | amount of radioactivity incorporated into CHO cells (CHO cells; Experiment 1, average of duplicate assays) | amount of radioactivity incorporated into CHO cells (CHO cells; Experiment 2, average of duplicate assays) | growth of CHO cells (in words) (CHO cells; two experiments) | blocking of TGF-β1 stimulation of CHO cell growth [4] | increase in the amount of ^125I that remained in solution relative to the control (^125I labeled TGF-β1; relative to control) | blocking of binding of ^125I labeled TGF-β1 to TβRIII (in words) (TβRIII)
1 | O=C(O)c1c[nH]c2cc(OCc3ccccc3)ccc2c1=O [NSC 306960] | did not inhibit TGF-β1 induction of luciferase activity | did not block the growth inhibition activity of TGF-β1 | no ppt | 32155 |  |  |  |  |  |  |  |  |  |  | 
2 | Oc1cc(O)c2c(c1)OC(c1ccc(O)c(O)c1)C(OC1(c3cc(O)c(O)c(O)c3)Oc3cc(O)cc(O)c3C(O)C1O)C2 (stereo not shown) [NSC 143101] |  |  | no ppt | 34567 |  |  |  |  |  |  |  |  |  |  | 
3 | O=C(O)CCc1c2ccc(=O)c(O)c-2oc2c(O)c(O)ccc12 [NSC 119915] |  | blocks growth inhibition of TGF-β1 | ppt | 33660 | form precipitates | 25308 | 20770 | 726 |  |  |  |  |  |  | 
4 | TGF-β1: non-labeled TGF-β1 protein used as competitor for TβRII in the binding competition curve |  |  |  |  |  |  |  |  | nanomolar range |  |  |  |  |  | 
5 | O=C(O)/C=C/c1c2ccc(=O)c(O)c-2oc2c(O)c(O)ccc12 [NSC 119911] |  | blocks growth inhibition by TGF-β1 | ppt | 33990 | form precipitates | 25748 | 24534 | 769 |  |  |  |  |  |  | 
6 | O=C(O)C1CCCCC1c1c2ccc(=O)c(O)c-2oc2c(O)c(O)ccc12 (stereo not shown) [NSC 119910] |  |  | ppt |  | form precipitates | 24924 | 20587 |  |  |  |  |  |  |  | 
7 | CC1C2C=CC1C(c1c3ccc(=O)c(O)c-3oc3c(O)c(O)ccc13)C2C(=O)O (stereo not shown) [NSC 119913] |  |  | no ppt |  | form less or no precipitate | 27614 | 27960 |  |  |  |  |  |  |  | 
8 | O=C(O)c1c(Br)c(Br)c(Br)c(Br)c1C1c2ccc(O)cc2Oc2cc(O)ccc21 [NSC 119889] | marked reduction in luciferase activity | blocks growth inhibition of TGF-β1 | no ppt | 38324 | form less or no precipitate | 27159 | 29239 | 746 |  | 1475 | 936 | did not substantially inhibit growth of CHO cells | This stimulation was blocked | ~40% | blocks binding of the ^125I labeled TGF-β1 to TβRIII
